# Source: the supplement of paper PMC7017272
# ± gives the standard deviation of the averaged measurements.
# Experiments:
# Settings in all cases: treatment time: 3 days
# [1] = test system: UT-SCC-24A; test: relative IC50 (midpoint of the fitted curve; maximal inhibition may be below 50%); higher = less potent
# Description: (§1)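 HNSCC cell lines (500 cells/well, 384-well) were cultured on plastic, on top of (2D) or embedded (3D) in Matrigel or human leiomyoma matrix Myogel (500 ug/mL; Myogel 3D mixed with rat collagen I). Cells were treated for 3 days with 5 ten-fold concentrations of each drug, and viability was read by CellTiter-Glo. Viability was normalised to DMSO (0% inhibition) and 100 uM benzethonium chloride (100% inhibition) controls and fitted with the FIMM DSRT pipeline to give IC50 (nM), maximal % inhibition and the drug sensitivity score (DSS). Suffixes _1/_2/_3 on drug names are replicates.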
# [2] = test system: UT-SCC-106A; test: relative IC50 (midpoint of the fitted curve; maximal inhibition may be below 50%); higher = less potent
# How it was run: (§2)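 HPV-negative HNSCC cell lines were seeded at 500 cells/well in 384-well plates on plastic, on Matrigel- or Myogel-coated wells (500 µg/mL), or embedded in Matrigel or Myogel plus rat collagen I. Compounds were given at five 10-fold concentrations for 3 days, and viability was read by CellTiter-Glo 2.0 luminescence. Signals were normalised to vehicle (0.1% DMSO) and cell-killing control wells. Percent-inhibition dose–response curves were fitted in the FIMM pipeline to derive IC50, maximal inhibition and drug sensitivity score.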
# [3] = test system: UT-SCC-14; test: as above
# How it was run: as §2
# [4] = test system: UT-SCC-40; test: as above
# How it was run: as §2
# [5] = test system: UT-SCC-42B; test: as above
# How it was run: as §2
# [6] = test system: UT-SCC-8; test: as above
# How it was run: as §2
# [7] = test system: UT-SCC-44; test: as above
# How it was run: as §2
# [8] = test system: UT-SCC-28; test: as above
# How it was run: as §2
# [9] = test system: UT-SCC-73; test: as above
# How it was run: as §2
# [10] = test system: UT-SCC-42A; test: as above
# How it was run: as §2
# [11] = test system: UT-SCC-81; test: as above
# How it was run: as §2
# [12] = test system: UT-SCC-24B; test: as above
# How it was run: as §2
# [13] = test system: UT-SCC-14; test: maximal % inhibition of viability relative to DMSO; higher = stronger effect
# Description: as §1, with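 “DMSO” for “DMSO (0% inhibition)”, “and” for “and 100 uM”, “chloride” for “chloride (100% inhibition)”, “DSS.” for “the drug sensitivity score (DSS).”, “_1/_2/_3” for “_1/_2/_3 on drug names”, “replicates. Only inhibition-mode (IC50) fits are kept.” for “replicates.”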
# [14] = test system: UT-SCC-40; test: as above
# Description: as §1, with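 “DMSO” for “DMSO (0% inhibition)”, “and” for “and 100 uM”, “chloride” for “chloride (100% inhibition)”, “DSS.” for “the drug sensitivity score (DSS).”, “_1/_2/_3” for “_1/_2/_3 on drug names”, “replicates. Only inhibition-mode (IC50) fits are kept.” for “replicates.”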
# [15] = test system: UT-SCC-42B; test: as above
# Description: as §1, with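 “DMSO” for “DMSO (0% inhibition)”, “and” for “and 100 uM”, “chloride” for “chloride (100% inhibition)”, “DSS.” for “the drug sensitivity score (DSS).”, “_1/_2/_3” for “_1/_2/_3 on drug names”, “replicates. Only inhibition-mode (IC50) fits are kept.” for “replicates.”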
# [16] = test system: UT-SCC-8; test: as above
# Description: as §1, with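 “DMSO” for “DMSO (0% inhibition)”, “and” for “and 100 uM”, “chloride” for “chloride (100% inhibition)”, “DSS.” for “the drug sensitivity score (DSS).”, “_1/_2/_3” for “_1/_2/_3 on drug names”, “replicates. Only inhibition-mode (IC50) fits are kept.” for “replicates.”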
# [17] = test system: UT-SCC-28; test: as above
# Description: as §1, with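 “DMSO” for “DMSO (0% inhibition)”, “and” for “and 100 uM”, “chloride” for “chloride (100% inhibition)”, “DSS.” for “the drug sensitivity score (DSS).”, “_1/_2/_3” for “_1/_2/_3 on drug names”, “replicates. Only inhibition-mode (IC50) fits are kept.” for “replicates.”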
# [18] = test system: UT-SCC-42A; test: as above
# Description: as §1, with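 “DMSO” for “DMSO (0% inhibition)”, “and” for “and 100 uM”, “chloride” for “chloride (100% inhibition)”, “DSS.” for “the drug sensitivity score (DSS).”, “_1/_2/_3” for “_1/_2/_3 on drug names”, “replicates. Only inhibition-mode (IC50) fits are kept.” for “replicates.”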
# [19] = test system: UT-SCC-81; test: as above
# Description: as §1, with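 “DMSO” for “DMSO (0% inhibition)”, “and” for “and 100 uM”, “chloride” for “chloride (100% inhibition)”, “DSS.” for “the drug sensitivity score (DSS).”, “_1/_2/_3” for “_1/_2/_3 on drug names”, “replicates. Only inhibition-mode (IC50) fits are kept.” for “replicates.”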
# [20] = test system: UT-SCC-24B; test: as above
# Description: as §1, with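 “DMSO” for “DMSO (0% inhibition)”, “and” for “and 100 uM”, “chloride” for “chloride (100% inhibition)”, “DSS.” for “the drug sensitivity score (DSS).”, “_1/_2/_3” for “_1/_2/_3 on drug names”, “replicates. Only inhibition-mode (IC50) fits are kept.” for “replicates.”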
# [21] = culture condition: embedded in Matrigel
# [22] = culture condition: embedded in Myogel + collagen I
# [23] = culture condition: on top of Matrigel
# [24] = culture condition: on top of Myogel
# [25] = culture condition: plastic 2D (no matrix)
smiles,measurement,setting,value
O=C(NC[C@H](O)CO)c1ccncc1Nc1ccc(I)cc1F [Pimasertib],relative IC50,[1]; [21],4.15 nM
same,relative IC50,[1]; [22],77 nM
same,relative IC50,[1]; [23],6.19 nM
same,relative IC50,[1]; [24],105 nM
same,relative IC50,[1]; [25],10.2 nM
same,relative IC50,[2]; [21],11.7 nM
same,relative IC50,[2]; [22],491 nM
same,relative IC50,[2]; [23],11.5 nM
same,relative IC50,[2]; [24],768 nM
same,relative IC50,[2]; [25],19 nM
same,relative IC50,[3]; [23],250 nM
same,relative IC50,[3]; [24],416 nM
same,relative IC50,[3]; [25],637 nM
same,relative IC50,[4]; [21],12.9 nM
same,relative IC50,[4]; [22],45.4 nM
same,relative IC50,[4]; [23],30.1 nM
same,relative IC50,[4]; [24],89.4 nM
same,relative IC50,[4]; [25],89 nM
same,relative IC50,[5]; [21],12.4 nM
same,relative IC50,[5]; [23],42.6 nM
same,relative IC50,[5]; [24],221 nM
same,relative IC50,[5]; [25],123 nM
same,relative IC50,[6]; [21],122 nM
same,relative IC50,[6]; [22],773 nM
same,relative IC50,[6]; [23],159 nM
same,relative IC50,[6]; [24],163 nM
same,relative IC50,[6]; [25],228 nM
same,relative IC50,[7]; [23],35.2 nM
same,relative IC50,[7]; [24],148 nM
same,relative IC50,[8]; [21],76.8 nM
same,relative IC50,[8]; [23],98.8 nM
same,relative IC50,[9]; [21],20.4 nM
same,relative IC50,[9]; [22],95.9 nM
same,relative IC50,[9]; [23],21 nM
same,relative IC50,[9]; [24],64.6 nM
same,relative IC50,[9]; [25],37.6 nM
same,relative IC50,[10]; [21],14.2 nM
same,relative IC50,[10]; [22],183 nM
same,relative IC50,[10]; [23],17.6 nM
same,relative IC50,[10]; [25],40.8 nM
same,relative IC50,[11]; [21],14.5 nM
same,relative IC50,[11]; [23],43.5 nM
same,relative IC50,[11]; [24],532 nM
same,relative IC50,[11]; [25],223 nM
same,relative IC50,[12]; [21],150 nM
same,relative IC50,[12]; [22],212 nM
same,relative IC50,[12]; [23],184 nM
same,relative IC50,[12]; [24],653 nM
same,relative IC50,[12]; [25],102 nM
same,maximal % inhibition of viability,[13]; [21],64.8 ± 6.5%
same,maximal % inhibition of viability,[13]; [22],59.6 ± 4.5%
same,maximal % inhibition of viability,[13]; [23],59.6 ± 6.8%
same,maximal % inhibition of viability,[13]; [24],54.7 ± 9.3%
same,maximal % inhibition of viability,[13]; [25],57.1 ± 10%
same,maximal % inhibition of viability,[14]; [21],80.6 ± 0.3%
same,maximal % inhibition of viability,[14]; [22],72.8 ± 3.5%
same,maximal % inhibition of viability,[14]; [23],77.77 ± 0.35%
same,maximal % inhibition of viability,[14]; [24],64.6 ± 2.5%
same,maximal % inhibition of viability,[14]; [25],64.5 ± 4.9%
same,maximal % inhibition of viability,[15]; [21],70.2 ± 1.9%
same,maximal % inhibition of viability,[15]; [23],59.9 ± 2.8%
same,maximal % inhibition of viability,[15]; [24],53 ± 2.7%
same,maximal % inhibition of viability,[15]; [25],49.2 ± 3.8%
same,maximal % inhibition of viability,[16]; [21],93.8 ± 1.2%
same,maximal % inhibition of viability,[16]; [22],82.5 ± 1.6%
same,maximal % inhibition of viability,[16]; [23],90.4 ± 0.76%
same,maximal % inhibition of viability,[16]; [24],85.8 ± 2.3%
same,maximal % inhibition of viability,[16]; [25],90.3 ± 2.2%
same,maximal % inhibition of viability,[17]; [21],54.1 ± 6.8%
same,maximal % inhibition of viability,[17]; [22],51 ± 6.3%
same,maximal % inhibition of viability,[17]; [23],54.8 ± 1.5%
same,maximal % inhibition of viability,[17]; [25],32.7 ± 3.9%
same,maximal % inhibition of viability,[18]; [21],61.3 ± 7.5%
same,maximal % inhibition of viability,[18]; [22],51.3 ± 6.6%
same,maximal % inhibition of viability,[18]; [23],63.2 ± 0.95%
same,maximal % inhibition of viability,[18]; [24],55.7 ± 5.7%
same,maximal % inhibition of viability,[18]; [25],60.4 ± 7.4%
same,maximal % inhibition of viability,[19]; [21],88.7 ± 1.7%
same,maximal % inhibition of viability,[19]; [22],68.2 ± 0.36%
same,maximal % inhibition of viability,[19]; [23],86.1 ± 0.46%
same,maximal % inhibition of viability,[19]; [24],71.2 ± 2.8%
same,maximal % inhibition of viability,[19]; [25],78.6 ± 1.5%
same,maximal % inhibition of viability,[20]; [21],72.7 ± 1.5%
same,maximal % inhibition of viability,[20]; [22],79.1 ± 8.2%
same,maximal % inhibition of viability,[20]; [23],75.8 ± 2.7%
same,maximal % inhibition of viability,[20]; [24],67.9 ± 2.7%
same,maximal % inhibition of viability,[20]; [25],88.9 ± 1.2%
